We go through one compound from patent US20220280561A1, “COPPER-ATSM FOR TREATING NEURODEGENERATIVE DISORDERS ASSOCITED WITH MITOCHONDRIAL DYSFUNCTION” (RESEARCH INSTITUTE AT NATIONWIDE CHILDREN'S HOSPITAL, priority 2019, published 2022).

The assay deals with ALS iAstrocytes co-cultured with GFP+ motor neurons. The assay is described as follows: co-culture of CuATSM-pretreated ALS iAstrocytes with GFP+ motor neurons. It is filed as cell-based, human. The method, then: Neuronal progenitors cells were cultured on fibronectin coated dishes in NPC media (DMEM/F12 media containing 1% N2 supplement (Life Technologies), 1% B27 and 20 ng/ml fibroblast growth factor-2) until confluent. Astrocytes were differentiated by seeding a small quantity of NPCs on another fibronectin coated dish in astrocyte inducing media (DMEM media containing 0.2% N2 and 10% FBS). Cells were treated with CuATSM daily, beginning day 2 of differentiation. Five days post differentiation, induced astrocytes were seeded either into a 96 well (10,000 cells/well), 384 well (2,500 cells/well), a 24 well seahorse plate (20,000 cells/well) or a 96 well seahorse plate (25,000 cells/well treated, 12,500 cells/well untreated).
Co-culture: Stem cells from HB9:GFP+ mouse embryos were cultured as described previously (Meyer 2014). […] Motor neurons with neurite outgrowth of greater than 50 um were counted as alive. […]
A previously established direct conversion co-culture system was utilized to assess the therapeutic potential of CuATSM in the treatment of ALS (Meyer et al., PNAS, 111 (2) 829-832(2014)). […] Three days following co-cultures motor neurons were imaged (FIG. 1B) and motor neuron survival was calculated (FIG. 1C). […]

Turning to `CN=C([S-])N/N=C(C)/C(C)=N/NC([S-])=NC.[Cu+2]` [CuATSM, diacetyl-bis(4-methylthiosemicarbazonato) copperII], where the note is “iAstrocytes treated daily during differentiation with 1 Um CuATSM, 3 days co-culture, all patient lines except ALS3 and ALS7”, the “motor neuron survival following co-culture” value was “increased motor neuron survival”. Also, for the setting “patient lines ALS3 (sALS) and ALS7 (C9ORF72)”, the “motor neuron survival following co-culture, responder classification” value is “nonresponders”.
